The target in data set [1] is T1, angiotensin II contracture of rabbit aortic strip (Oryctolagus cuniculus, UniProt P34976).
T1 construct: A spiral preparation of the aorta having a width of 1.5 to 2 mm and a length of 15 to 20 mm was prepared therefrom; from tissue; host or cells: thoracic aorta of male New Zealand white rabbit, spiral strip
T1 sequence (P34976 1-359): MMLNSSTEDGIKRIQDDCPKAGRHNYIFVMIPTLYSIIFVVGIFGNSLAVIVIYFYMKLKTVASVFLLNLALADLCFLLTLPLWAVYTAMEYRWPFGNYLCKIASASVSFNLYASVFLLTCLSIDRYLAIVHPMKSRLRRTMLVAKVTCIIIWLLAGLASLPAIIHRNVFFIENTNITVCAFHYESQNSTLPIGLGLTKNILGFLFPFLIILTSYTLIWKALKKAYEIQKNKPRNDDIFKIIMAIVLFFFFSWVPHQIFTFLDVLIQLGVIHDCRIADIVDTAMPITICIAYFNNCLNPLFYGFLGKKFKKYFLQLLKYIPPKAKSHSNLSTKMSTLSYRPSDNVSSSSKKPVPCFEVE
Nature of the data set: Angiotensin II contracture antagonism through the use of rabbit aortic strip. The note with it: negative log of antagonist concentration giving dose ratio 2, Schild's equation, 40 min preincubation, read-out: pA2 (converted). The data set is classed as cell-based, rabbit (New Zealand white). How it is done: (1) Angiotens in II contracture antagonism through the use of rabbit aortic strip A male New Zealand white rabbit having a weight of 2 to 3 kg was anesthetized with pentobarbital sodium, and the thoracic aorta was removed. A spiral preparation of the aorta having a width of 1.5 to 2 mm and a length of 15 to 20 mm was prepared therefrom and suspended in a 10-ml Magnus tank containing a Krebs bicarbonate solution (Krebs bicarbonate (mM): NaCl 118.4, KCl 4.7, CaCl2 2.0, MgSO4.7H2O 1.2, NaHCO3.25.0, KH2 PO4 1.2, glucose 11.1). 10^-5 M indomethacine was added thereto to eliminate the influence of prostaglandin. The Krebs solution was maintained at 37° C. and bubbled with 95% O2 -5% CO2. An initial tension of 1 g was applied to the strip, and the strip was allowed to stand for about 1 hr. Then, 50 mM KCl was added thereto to induce contracture. After the contracture was stabilized, the strip was washed. The above procedure was repeated twice, and the second contracture was taken as 100% contracture. Thereafter, angiotensin II was accumulatively added from 10^-10 to 3×10^-6 to prepare a dose-reaction curve. […] The contraction was recorded on a multi-pen recorder (R-10 manufactured by Rika Denki Kogyo Co., Ltd.) through a carrier amplifier (A[…] or A[…] manufactured by Nihon Koden Corp.) by making use of an isometric piezoelectric transducer ([…] manufactured by Nihon Koden Corp.). The potency of the angiotensin II antagonist was determined by calculating negative logarithm (-log) of a concentration of pA2 value [i.e., a concentration of competitive antagonist which makes the dose ratio of the active agent 2] through the use of Schild's equation.

Data set [2] deals with pressor reaction of angiotensin II. Nature of the data set: Inhibition of pressor reaction of angiotensin II on anesthetized rat (Wistar Kyoto) having blocked ganglions. The conditions noted are these: iv, 0.05 h, ganglion-blocked Wistar Kyoto rat, i.v., 3 min after administration, read-out: Dose necessary for shifting about doubled shift of pressor reaction of angiotensin toward right (ED50). The data set is classed as in vivo. As for the experimental part:
(2) Inhibition of pressor reaction of angiotensin II on anesthetized rat (Wistar Kyoto) having blocked ganglions
A 9 to 25 week-old Wistar Kyoto male rat (Charles River Japan) was anesthetized with 50 mg/kg pentobarbital sodium intraperitoneally, and the carotid and jugular were cannulated. The carotid cannula was connected to a piezoelectric transducer (TP-200T), and recording was conducted with a polygraph system (RM-6000 manufactured by Nihon Koden Corp.) through a carrier amplifier (AP-601G manufactured by Nihon Koden Corp.) and an average blood pressure measuring panel (Nihon Koden Corp.) utilizing the integration of pulse waves. 10 mg/kg of pentolinium was administered intravenously through the jugular cannula to conduct ganglion blockade. […] Then, 0.1 to 10 mg/kg of the test compound was administered intravenously, and 0.03 to 1 μg/kg of angiotensin II was again administered intravenously 3 min after the administration of the test compound to determine the rate of shift of the dose-pressor reaction curve toward the right. A dose (C, ED50, mg/kg, i.v.) necessary for bringing about doubled shift of the dose-pressor reaction curve toward the right was determined from the dose of the antagonist (A, mg/kg, i.v.) and the above-described rate of shift (B). [formula]

A short description of data set [3]: Seven-day repeated oral administration, observation of death in SD rats. The data set is classed as in vivo. The note with it: 100 mg/kg/day orally for seven days; eight week-old male SD rats; observed until 24 hr after final administration. How it is done: Further, compound Nos. 1, 2, 5 and 6 listed in the above-described Table 1 were suspended in 0.5% MC (methylcellulose), and the suspension was orally administered to an eight week-old male SD (Sprague Dawley) rats (4 rats per group) in a dose of 100 mg/kg/day for seven days. The rats were observed until 24 hr after the final administration.

On to `CCOc1nc2c(C)ccnc2n1Cc1ccc(-c2ccccc2-c2nnn[nH]2)cc1` [compound 26], for which the Kb in data set [1] is 0.0263 nM. For the same molecule, the ED50 in data set [2] was 0.0084 mg/kg.
The like results for `CCCc1nc2cccnc2n1Cc1ccc(-c2cc(Cl)ccc2-c2nnn[nH]2)cc1` [compound 3] were, in that order, 1.55 nM and 0.44 mg/kg.
The corresponding values for `CCc1nc2c(C)ccnc2n1Cc1ccc(-c2ccccc2C(=O)O)cc1` [compound 16] are 3.16 nM and 0.29 mg/kg.
The corresponding values for `CCc1nc2cc(Br)cnc2n1Cc1ccc(-c2ccccc2-c2nnn[nH]2)cc1` [compound 4] are 10 nM and 1.57 mg/kg.
`Cc1ccnc2c1nc(C1CC1)n2Cc1ccc(-c2cc(Cl)ccc2C(=O)O)cc1` [compound 29]: in data set [1], the Kb is 3.39 nM. Also, in data set [2], the ED50 was 0.06 mg/kg.
For `CCCc1nc2c(C)ccnc2n1Cc1ccc(-c2ccccc2-c2nn[nH]n2)cc1` [compound 5], the Kb in data set [1] is 0.0468 nM. Also, the ED50 in data set [2] turned out to be 0.029 mg/kg. The death entry in data set [3] is on record as “no death was observed”.
For the molecule `CCCCc1nc2cccnc2n1Cc1ccc(-c2cc(OC)ccc2-c2nnn[nH]2)cc1` [compound 8], the Kb in data set [1] is 4.27 nM. Besides, the ED50 in data set [2] was determined as 0.71 mg/kg.
The corresponding values for `Cc1ccnc2c1nc(C1CC1)n2Cc1ccc(-c2ccccc2C(=O)O)cc1` [compound 18] are 2.14 nM and 0.075 mg/kg.
The like results for `CCCc1nc2c(C)c(Cl)cnc2n1Cc1ccc(-c2ccccc2-c2nnn[nH]2)cc1` [compound 15] were, in that order, 1.35 nM and 0.32 mg/kg.
As for `CCCc1nc2c(C)ccnc2n1Cc1ccc(-c2ccccc2C(=O)O)cc1` [compound 17], the Kb in data set [1] is 3.55 nM. Also, in data set [2], the ED50 is 0.17 mg/kg.
The corresponding values for `CCCc1nc2c(C)ccnc2n1Cc1ccc(-c2cc(Cl)ccc2-c2nnn[nH]2)cc1` [compound 21] are 0.0115 nM and 0.071 mg/kg.
The like results for `Cc1ccnc2c1nc(C(C)C)n2Cc1ccc(-c2ccccc2-c2nnn[nH]2)cc1` [compound 10] were, in that order, 0.661 nM and 0.42 mg/kg.
Consider `CCc1nc2c(C)ccnc2n1Cc1ccc(-c2ccccc2-c2nnn[nH]2)cc1` [compound 6], for which the Kb in data set [1] was 0.0912 nM. Moreover, in data set [2], the ED50 stood at 0.019 mg/kg. Further, the death result in data set [3] is “no death was observed”.
The corresponding values for `CCCc1nc2cccnc2n1Cc1ccc(-c2ccccc2-c2nn[nH]n2)cc1` [compound 2] are 0.832 nM, 0.15 mg/kg and “no death was observed”.
Turning to `CCOc1nc2c(C)cc(C)nc2n1Cc1ccc(-c2ccccc2-c2nnn[nH]2)cc1` [compound 31], the Kb in data set [1] is 0.182 nM. In addition, the ED50 in data set [2] was found to be 0.01 mg/kg.
The corresponding values for `CSc1nc2c(C)ccnc2n1Cc1ccc(-c2ccccc2-c2nnn[nH]2)cc1` [compound 12] are 0.525 nM and 0.13 mg/kg.
As to `CCCCc1nc2ccccc2n1Cc1ccc(-c2ccccc2-c2nn[nH]n2)cc1` [compound 1], the Kb in data set [1] was 7.76 nM. The ED50 in data set [2] is 0.74 mg/kg. In data set [3], the death entry is given as “no death was observed”.
Turning to `CCCOc1nc2c(C)ccnc2n1Cc1ccc(-c2ccccc2-c2nnn[nH]2)cc1` [compound 27], the Kb in data set [1] is 0.372 nM. Further, the ED50 in data set [2] came to 0.034 mg/kg.
In the case of `CCCc1nc2c(Cl)ccnc2n1Cc1ccc(-c2ccccc2C(=O)O)cc1` [compound 13], the Kb in data set [1] was 8.71 nM. Moreover, the ED50 in data set [2] is 0.66 mg/kg.
The corresponding values for `Cc1cc(C)c2nc(C3CC3)n(Cc3ccc(-c4ccccc4C(=O)O)cc3)c2n1` [compound 25] are 0.589 nM and 0.021 mg/kg.
As to `CCCc1ccnc2c1nc(CC)n2Cc1ccc(-c2ccccc2-c2nnn[nH]2)cc1` [compound 9], the Kb in data set [1] is 23.4 nM. The ED50 in data set [2] is 1.33 mg/kg.
The corresponding values for `CC#Cc1nc2c(C)ccnc2n1Cc1ccc(-c2ccccc2-c2nnn[nH]2)cc1` [compound 28] are 0.891 nM and 0.04 mg/kg.
The corresponding values for `CCc1nc2ccc(Cl)nc2n1Cc1ccc(-c2ccccc2-c2nnn[nH]2)cc1` [compound 14] are 2.95 nM and 0.35 mg/kg.
The like results for `CCCc1nc2c(C)cc(C)nc2n1Cc1ccc(-c2ccccc2C(=O)O)cc1` [compound 23] were, in that order, 1.15 nM and 0.08 mg/kg.
`Cc1ccnc2c1nc(C1CC1)n2Cc1ccc(-c2ccccc2-c2nnn[nH]2)cc1` [compound 7]: in data set [1], the Kb is 0.0229 nM. Also, the ED50 in data set [2] amounted to 0.022 mg/kg.
Turning to `CCSc1nc2c(C)ccnc2n1Cc1ccc(-c2ccccc2-c2nnn[nH]2)cc1` [compound 11], the Kb in data set [1] was 0.182 nM. Also, the ED50 in data set [2] stood at 0.04 mg/kg.
In the case of `CCSc1nc2c(C)ccnc2n1Cc1ccc(-c2ccccc2C(=O)O)cc1` [compound 20], the Kb in data set [1] is 5.25 nM. Also, the ED50 in data set [2] came to 0.41 mg/kg.
The corresponding values for `Cc1cc(C)c2nc(C3CC3)n(Cc3ccc(-c4ccccc4-c4nnn[nH]4)cc3)c2n1` [compound 24] are 0.0138 nM and 0.015 mg/kg.
With `CCCc1nc2c(C)cc(C)nc2n1Cc1ccc(-c2ccccc2-c2nnn[nH]2)cc1` [compound 22], in data set [1], the Kb is 0.024 nM. Besides, the ED50 in data set [2] turned out to be 0.04 mg/kg.
On to `Cc1ccnc2c1nc(C1CCC1)n2Cc1ccc(-c2ccccc2C(=O)O)cc1` [compound 19], for which the Kb in data set [1] was 4.9 nM. Further, the ED50 in data set [2] came out at 0.25 mg/kg.
The corresponding values for `CCOc1nc2c(C)cc(C)nc2n1Cc1ccc(-c2ccccc2C(=O)O)cc1` [compound 32] are 0.575 nM and 0.018 mg/kg.
For the molecule `COc1nc2c(C)ccnc2n1Cc1ccc(-c2ccccc2-c2nnn[nH]2)cc1` [compound 30], the Kb in data set [1] is 0.132 nM. Further, the ED50 in data set [2] amounted to 0.016 mg/kg.

Source of the values: US5506238A, “Biphenylmethane derivative and pharmacological use” (Eisai Co., Ltd., priority 1989, dated 1996).
